Results from patent US20050037975A1, “Method for treatment of glutamate related disorders” (priority 1997, published 2005).
Changes are numbered by the printed parent chain. Each block holds one compound with its values, some of them ahead of it.

Experiments:
ALDH2 = assay: In vitro inactivation of aldehyde dehydrogenase; assay type: biochemical; settings: reversible or irreversible
Method: To test whether the protective effect of DETC-MeSO in hyperbaric O2-induced convulsions in mice could be due to inhibition of succinic semi-aldehyde dehydrogenase (SSA DH), mechanistically related to ALDH2, the sensitivity of SSA DH to inactivation by DETC-MeSO was determined. Potentially, inhibition of SSA DH in brain could offset the build up of ammonia known to occur and produce more GABA. In vitro both ALDH2 and SSA DH are inactivated by DETC-MeSO at 47 M-1 s-1 and 300 M-1 s-1, respectively.

mouse liver low Km ALDH = molecular target: T1, mouse liver low Km ALDH (Mus musculus, UniProt P47738); assay: In vivo inhibition of mouse liver aldehyde dehydrogenase; settings: mouse; 30 μmol/kg intravenous, mice
T1 construct: Liver aldehyde dehydrogenase was extracted and assayed as previously described; from tissue; host or cells: liver of treated mice
T1 sequence (P47738 20-519): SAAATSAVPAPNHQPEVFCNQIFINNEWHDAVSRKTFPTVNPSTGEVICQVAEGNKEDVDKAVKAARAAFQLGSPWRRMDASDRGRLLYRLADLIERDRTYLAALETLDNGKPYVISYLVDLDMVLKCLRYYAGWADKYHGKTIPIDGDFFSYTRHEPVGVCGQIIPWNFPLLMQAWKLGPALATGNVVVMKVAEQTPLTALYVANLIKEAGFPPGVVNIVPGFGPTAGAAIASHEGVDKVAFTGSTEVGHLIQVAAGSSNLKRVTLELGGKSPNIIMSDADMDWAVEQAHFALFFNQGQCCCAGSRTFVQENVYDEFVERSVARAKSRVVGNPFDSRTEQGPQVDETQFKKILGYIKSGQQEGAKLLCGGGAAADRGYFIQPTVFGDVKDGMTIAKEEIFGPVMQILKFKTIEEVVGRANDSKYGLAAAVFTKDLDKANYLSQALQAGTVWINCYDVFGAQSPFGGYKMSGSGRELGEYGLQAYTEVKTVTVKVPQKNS
Method: Reagents—DETC-MeSO was synthesized by the method of Hart and Faiman (B. W. Hart et al., Biochem. Pharmacol.), 43, 403-406 (1992). Carbamoylated glutathione, S-(N,N-diethylcarbamoyl)glutathione (DETC-GS), was prepared essentially as described by Jin et al. (L. Jin, supra). The structures and purity of DETC-MeSO and DETC-GS were confirmed by 300 MHz NMR and FAB-tandem mass spectrometry. A QE300 NMR spectrometer (General Electric, Fremont, Calif.) and Autospec-Q Tandem Hybrid mass spectrometer (Fiscons/VG Analytical Limited, Manchester, England) were employed for these analyses. Liver aldehyde dehydrogenase was extracted and assayed as previously described (B. W. Hart et al., supra). MetSOX monosodium L-glutamate, glycine, glutathione, and NMDA were purchased from Sigma Chemical Company (St. Louis, Mo.). L-[3-^3H]Glutamate (46 Ci/mmol) was obtained from Amerisham Life Science (Buckinghamshire, England).

[1] = Carbamoylation of glutathione by DETC-MeSO under physiological conditions; settings: under physiological conditions
Excerpt: This rate of reaction was approximate an order of magnitude faster than that of the more familiar α-haloketone functionality.

[2] = tested on: brain glutamate receptors (synaptic membranes); assay: [3H]glutamate binding to mouse brain synaptic membranes in vitro; settings: for effect on glutamate binding to synaptic membrane preparations: in vitro, without glycine
Method: Binding Studies—Synaptic membranes (100 μg protein) were isolated (Y. H. Lee et al., J. Neurosci. Res. 40, 797-806 (1995)) form whole brain homogenate of male Swiss Webster mice and were incubated in 0.1 mM L-glutamate for 30 minutes at 25° C. After addition of 50 nM of [^3H]glutamate, incubation was continued for an additional 45 minutes. Reactions were terminated by centrifugation at 4° C. to separate membrane-bound from free radioactivity. […] The rate (k) and maximum percent blockage of glutamate binding (M) by DETC-MeSO (1) during the incubation time (t) was determined by fitting the equation [% inhibition]=M(1−e^−kh) to these day by use of the program Grafit (Erithicus Software Ltd.). This equation was derived for first-order inactivation by a group specific reagent that gives a partial effect. If “A” is the percent of binding activity that remains after extensive exposure (t=of the receptor to excess DETC-MeSO, then M=100−A)e^−kh+A; substituting (100−M) for “A” and [100−% inhibition] for “a” in this equation gives the one employed for purposes of data analyses. […] A second equation was employed in the analysis of binding data that defines partial, irreversible inactivation of two distinct groups of receptors [% inhibition]=M1(1−e^−k1^IT)+M2(1−e^−k1^IT), where M1 and M2 are the maximum amount of inhibition obtained for complete modification of each receptor population and k1 and k2 are the rate constants for these modifications, respectively.
Six determinations of the effect of DETC-MeSO were made at each concentration tested (1, 5, 10, 50, 100, 200, and 1000 μM) and the average value is shown with error bars for one standard deviation.

[3] = tested on: brain glutamate receptors (synaptic membranes); assay: Glutamate binding to synaptic membranes isolated from treated mice; assay type: in vivo, mouse; settings: 30 μmol/kg intravenous, mice
Method: Binding Studies—Synaptic membranes (100 μg protein) were isolated (Y. H. Lee et al., J. Neurosci. Res. 40, 797-806 (1995)) form whole brain homogenate of male Swiss Webster mice and were incubated in 0.1 mM L-glutamate for 30 minutes at 25° C. After addition of 50 nM of [^3H]glutamate, incubation was continued for an additional 45 minutes. Reactions were terminated by centrifugation at 4° C. to separate membrane-bound from free radioactivity. Nonspecific binding (radioactivity bound in the presence of 0.5 mM unlabeled glutamate) averages: 20-30% of total radioactivity bound. The rate (k) and maximum percent blockage of glutamate binding (M) by DETC-MeSO (1) during the incubation time (t) was determined by fitting the equation [% inhibition]=M(1−e^−kh) to these day by use of the program Grafit (Erithicus Software Ltd.). This equation was derived for first-order inactivation by a group specific reagent that gives a partial effect. If “A” is the percent of binding activity that remains after extensive exposure (t=of the receptor to excess DETC-MeSO, then M=100−A)e^−kh+A; substituting (100−M) for “A” and [100−% inhibition] for “a” in this equation gives the one employed for purposes of data analyses. […] A second equation was employed in the analysis of binding data that defines partial, irreversible inactivation of two distinct groups of receptors [% inhibition]=M1(1−e^−k1^IT)+M2(1−e^−k1^IT), where M1 and M2 are the maximum amount of inhibition obtained for complete modification of each receptor population and k1 and k2 are the rate constants for these modifications, respectively.
Synaptic membranes were prepared from the brains of mice injected with DETC-MeSO (5.2 mg/kg, i.p.). The ability of synaptic membrane preparations isolated from DETC-MeSO-treated mice to bind glutamate was compared with similar preparations isolated from control animals. FIG. 3(A) illustrates the results obtained from synaptic membranes prepared from brains of mice killed two hours after a single dose of DETC-MeSO, or two hours after the last injection of multiple consecutive doses (5.2 mg/kg, i.p., daily for seven days). Either single or multiple dosing with DETC-MeSO reduced the capacity of synaptic membranes to bind glutamate by approximately 50%, the maximum effect obtained in vitro (FIG. 3). Each bar represents the average of results obtained from four animals and the error bars are for one standard deviation.

[4] = molecular target: T2, rat liver mitochondrial low Km ALDH (Rattus norvegicus, UniProt P11884); assay: In vitro inhibition of rat liver mitochondrial low Km aldehyde dehydrogenase (isolated mitochondria); assay type: biochemical; settings: one hour incubation
T2 construct: differential centrifugation carried out to isolate the mitochondrial faction; from tissue; host or cells: liver mitochondria of male Sprague-Dawley derived rats
T2 sequence (P11884 20-519): T1 sequence (P47738 20-519) with H13Q, R34K, R67Q, G237D, N313D, D422N
Method: To determine whether a compound of formula (I) can inhibit low Km aldehyde dehydrogenase, an amount of the compound is added to isolated mitochondria. To prepare isolated mitochondria, male Sprague-Dawley derived rats weighing 200-400 g were anesthetized with carbon dioxide and then decapitated. The livers from untreated rats were homogenized in 0.25 M sucrose and differential centrifugation carried out to isolate the mitochondrial faction. The mitochondria were solubilized with sodium deoxycholate, and mitochondrial low Km ALDH activity determined by the method of S. O. C. Tottmar et al., Biochem. J. 135, 577 (1973).
Mitochondria were isolated from the liver of untreated rats and resuspended in 0.1 M phosphate buffer (pH=7.4). Incubations contained 2 mg of mitochondrial protein, to which was added DETC-Me SO at 0.2 μM, 2.0 μM, 20 μM or 200 μM, or DDTC-Me SO at 0.5 μM, 2.5 μM, 10 μM; 25 μM, 50 μM or 100 μM. The DETC-Me SO or DDTC-Me SO was dissolved in ethanol and the incubations carried out for one hour. Control incubations contained ethanol alone.
At the end of the incubation, the mitochondria were isolated by centrifugation, resuspended in 0.25 M sucrose buffer and solubilized with deoxycholate. Low Km ALDH activity was determined by the method of S. O. C. Tottmar et. al., cited above.

[5] = molecular target: T2, rat liver mitochondrial low Km ALDH; assay: Liver aldehyde dehydrogenase determined in vivo; settings: intraperitoneal (IP), liver taken eight hours later
Method: To determine if a compound of formula (I) can inhibit aldehyde dehydrogenase activity in vivo, doses of DETC-Me SO (1.3 mg/kg, 2.6 mg/kg, 5.2 mg/kg, 10.3 mg/kg and 20.6 mg/kg), were administered to male Sprague Dawley derived rats weighing 200-400 g. The rats were bred from a resident colony maintained in the Animal Care Unit at the University of Kansas. Rats were maintained on a 12-hour lights cycle with access to food and water ad lib until the night before an experiment, at which time food was removed. Animals were fasted for 12 hours prior to drug administration.
All experiments were carried out in the morning. Rats were treated with the doses of DETC-Me SO or DETC-Me described above, which were dissolved in polyethylene glycol 200. Eight hours later, the rats were anesthetized with carbon-dioxide and then decapitated. The liver was quickly removed and the low Km aldehyde dehydrogenase determined. Control rats were treated with […] vehicle only, and each control data point also represents an average of four rats.
The liver from drug-treated and control rats was homogenized in 0.25 M sucrose and differential centrifugation was carried out to isolate the mitochondrial fraction. The mitochondria were solubilized with sodium deoxycholate, and mitochondrial low Km and total (high and low) aldehyde dehydrogenase activity determined by the method of S. O. C. Tottmar et al., cited above.

- effect on aldehyde dehydrogenase in vitro (ALDH2): no effect
- inhibition at 30 µmol/kg (mouse liver low Km ALDH): 30.1 ± 1%
- stability of the carbamoylated glutathione [1]: relatively stable
- effect on glutamate binding to synaptic membrane preparations [2]: reversibly blocked
Compound: CCN(CC)C(=O)SC[C@H](NC(=O)CC[C@H](N)C(=O)O)C(=O)NCC(=O)O [DETC-GS, S-(N,N-diethylcarbamoyl)glutathione]
- irreversible brain glutamate receptor blockage [3]: 26.9±4.3%

Compound: oxidized glutathione [GSSG, reference compound]
- effect on glutamate binding to synaptic membrane preparations [2]: reversibly blocked

- IC50 ([4]; 2 mg mitochondrial protein, read-out: concentration required for 50% inhibition): ~15 µM
Compound: CCN(CC)C(=S)[S+](C)[O-] (centres unmarked) [DDTC-Me SO, S-Methyl-N,N-Diethyldithiocarbamate Sulfoxide]

Compound: CCN(CC)C(=O)SC [DETC-Me, S-Methyl-N,N-Diethylthiolcarbamate]
- inhibition of low Km ALDH ([4]; 200 μM): 8%
- dose required to inhibit 50% of the low Km ALDH [5]: 6.5 mg/kg

Compound: CN[C@H](CC(=O)O)C(=O)O [NMDA, N-methyl-D-asparate, reference compound]
- reversible blockage of glutamate binding ([2]; 0.5 mM, in the presence of glycine (0.1 mM)): 32±2%
- effect on glutamate binding to synaptic membrane preparations [2]: does not block glutamate binding
